Experimental data: patent publication US7045528B2, “Benzofused heterozryl amide derivatives of thienopyridines useful as therapeutic agents, pharmaceutical compositions including the same, and methods for their use” (Agouron Pharmaceuticals, Inc., priority 2002, dated 2006)
Where two headings read alike, the source gives them in different places.

How the values were obtained:
[1] = target: T1, unphosphorylated VEGF-R2Δ50 (FLVK) (Homo sapiens, UniProt P35968, DEL940-989/E990V); test: VEGF-R2 coupled spectrophotometric assay, unphosphorylated VEGF-R2Δ50 (FLVK); assay type: biochemical; details: for inhibition at 0.1 µM: read-out: FLVK (% @ 100 nM); for inhibition at 0.05 µM: 50 nM compound, read-out: FLVK (% inh @ 50 nM); for inhibition at 0.05 µM / Ki: unphosphorylated VEGF-R2Δ50
T1 construct: VEGF-R2Δ50 contains residues 806–939 and 990–1171; made in house; host or cells: baculovirus/insect cell system
Procedure, shortened: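 Ki obtained by Morrison-equation fitting of activity at varied compound levels; reaction started with 5–40 nM enzyme. Non-autophosphorylated kinase construct (insect cell-expressed) with 3 mM ATP, 20 mM poly(E4Y1), 60 mM MgCl2 plus 2 mM MnCl2, pH 7.5 HEPES; NADH loss at 340 nm via PK/LDH coupling.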

PDGFRβ = target: T2, PDGFRβ (Homo sapiens, UniProt P09619); test: PAE-PDGFRβ phosphorylation in PAE-PDGFRB cells assay; assay type: cell-based
T2 construct: expressed in transfected cells; host or cells: porcine aorta endothelial (PAE)-PDGFRβ cells
Procedure, shortened: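 Inhibition of PDGF-BB-induced (1 μg/mL, 8 min, with 2 mM vanadate) PDGFRβ autophosphorylation in porcine aortic endothelial cells expressing the human receptor. Cells were starved 16 h and pretreated with compound 1 h at 37 °C. Lysates were captured with anti-PDGFRβ and probed with HRP-PY20 at 450 nm; four-parameter IC50.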

FGF-R1 = target: T3, FGF-R1 (Homo sapiens, UniProt P11362, C488A/C584S/L457V); test: FGF-R spectrophotometric assay; assay type: biochemical; details: percent inhibition at 100 nM; library amides from Example 101 (R101), crude mixtures in DMSO
T3 construct: starting from the endogenous methionine residue 456 to glutamate 766; made in house; host or cells: baculovirus vector expression system
Procedure: FGF-R1 Construct for Assay:
The intracellular kinase domain of human FGF-R1 was expressed using the baculovirus vector expression system starting from the endogenous methionine residue 456 to glutamate 766, according to the residue numbering system of Mohammadi et al., Mol. Cell. Bio., 16, 977–989 (1996). In addition, the construct also has the following 3 amino acid substitutions: L457V, C488A, and C584S.
The spectrophotometric assay was carried out as described above for VEGF-R2, except for the following changes in concentration: FGF-R=50 nM, ATP=2 mM, and poly(E4Y1)=15 mM.

[2] = tested on: human umbilical vein endothelial cells (HUVEC); test: HUVEC+VEGF proliferation assay; assay type: cell-based; details: Homo sapiens, HUVEC; VEGF 6 ng/mL, 72 h, MTT
Procedure, shortened: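 Exponentially growing passage 3–4 HUVEC were starved 24 h in F12K + 1% FBS, given compound (0.1% final DMSO) 1 h before 6 ng/mL final VEGF, then cultured 72 h. Proliferation was read as MTT dye reduction (4 h exposure), absorbance at 595 nm.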

Huvec = test: bFGF Huvec proliferation; assay type: cell-based, human; details: Homo sapiens, HUVEC
Mouse PK assay = assay type: in vivo; details: 50 mg/kg, B6 female mice, plasma; for AUC / Cmax: mouse, po
Procedure: The pharmacokinetics (e.g., absorption and elimination) of drugs in mice were analyzed using the following experiment. Test compounds were formulated as a suspension in a 30:70 (PEG 400:acidified H2O) vehicle. This solution was administered orally (p.o.) and intraperitoneally (i.p.) at 50 mg/kg to two distinct groups (n=4) of B6 female mice. Blood samples were collected via an orbital bleed at time points: 0 hour (pre-dose), 0.5 hr, 1.0 hr, 2.0 hr, and 4.0 hr post dose. Plasma was obtained from each sample by centrifugation at 2500 rpm for 5 min. Test compound was extracted from the plasma by an organic protein precipitation method. For each time bleed, 50 μL of plasma was combined with 1.0 mL of acetonitrile, vortexed for 2 min. and then spun at 4000 rpm for 15 min. to precipitate the protein and extract out the test compound. Next, the acetonitrile supernatant (the extract containing test compound) was poured into new test tubes and evaporated on a hot plate (25° C.) under a steam of N2 gas. To each tube containing the dried test compound extract, 125 μL of mobile phase (60:40, 0.025 M NH4H2PO4+2.5 mL/L TEA:acetonitrile) was added. The test compound was resuspended in the mobile phase by vortexing and more protein was removed by centrifugation at 4000 rpm for 5 min. Each sample was poured into an HPLC vial for test compound analysis on an Hewlett Packard 1100 series HPLC with UV detection. From each sample, 95 μL was injected onto a Phenomenex-Prodigy reverse phase C-18, 150×3.2 mm column and eluted with a 45–50% acetonitrile gradient run over 10 min. Test-compound plasma concentrations (μg/mL) were determined by a comparison to standard curve (peak area vs. conc. μg/mL) using known concentrations of test compound extracted from plasma samples in the manner described above. Along with the standards and unknowns, three groups (n=4) of quality controls (0.25 μg/mL, 1.5 μg/mL, and 7.5 μg/mL) were run to insure the consistency of the analysis. […] The quantitated test samples were plotted for visual display using Kalidagraph software and their pharmacokinetic parameters were determined using WIN NONLIN software.

[3] = percent inhibition at 100 nM, library amides from Example 101 (R101), crude mixtures in DMSO
[4] = library amides from Example 101 (R101), crude mixtures in DMSO, read-out: PAE PDGFR autophos IC50
[5] = PAE cells overexpressing human PDGFRβ, PDGF-BB stimulated, read-out: PAE PDGFR autophos IC50 (nM) AVG

T3 sequence (P11362 456-766 L457V/C488A/C584S): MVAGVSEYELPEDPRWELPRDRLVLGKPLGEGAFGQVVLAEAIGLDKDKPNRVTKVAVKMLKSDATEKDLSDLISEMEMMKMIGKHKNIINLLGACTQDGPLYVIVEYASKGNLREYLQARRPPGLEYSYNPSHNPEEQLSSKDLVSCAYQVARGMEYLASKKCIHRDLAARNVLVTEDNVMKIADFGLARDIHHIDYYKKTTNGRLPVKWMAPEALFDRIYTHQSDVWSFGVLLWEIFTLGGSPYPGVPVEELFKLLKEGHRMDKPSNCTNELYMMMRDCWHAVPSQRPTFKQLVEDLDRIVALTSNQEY
T2 sequence (P09619 33-1106): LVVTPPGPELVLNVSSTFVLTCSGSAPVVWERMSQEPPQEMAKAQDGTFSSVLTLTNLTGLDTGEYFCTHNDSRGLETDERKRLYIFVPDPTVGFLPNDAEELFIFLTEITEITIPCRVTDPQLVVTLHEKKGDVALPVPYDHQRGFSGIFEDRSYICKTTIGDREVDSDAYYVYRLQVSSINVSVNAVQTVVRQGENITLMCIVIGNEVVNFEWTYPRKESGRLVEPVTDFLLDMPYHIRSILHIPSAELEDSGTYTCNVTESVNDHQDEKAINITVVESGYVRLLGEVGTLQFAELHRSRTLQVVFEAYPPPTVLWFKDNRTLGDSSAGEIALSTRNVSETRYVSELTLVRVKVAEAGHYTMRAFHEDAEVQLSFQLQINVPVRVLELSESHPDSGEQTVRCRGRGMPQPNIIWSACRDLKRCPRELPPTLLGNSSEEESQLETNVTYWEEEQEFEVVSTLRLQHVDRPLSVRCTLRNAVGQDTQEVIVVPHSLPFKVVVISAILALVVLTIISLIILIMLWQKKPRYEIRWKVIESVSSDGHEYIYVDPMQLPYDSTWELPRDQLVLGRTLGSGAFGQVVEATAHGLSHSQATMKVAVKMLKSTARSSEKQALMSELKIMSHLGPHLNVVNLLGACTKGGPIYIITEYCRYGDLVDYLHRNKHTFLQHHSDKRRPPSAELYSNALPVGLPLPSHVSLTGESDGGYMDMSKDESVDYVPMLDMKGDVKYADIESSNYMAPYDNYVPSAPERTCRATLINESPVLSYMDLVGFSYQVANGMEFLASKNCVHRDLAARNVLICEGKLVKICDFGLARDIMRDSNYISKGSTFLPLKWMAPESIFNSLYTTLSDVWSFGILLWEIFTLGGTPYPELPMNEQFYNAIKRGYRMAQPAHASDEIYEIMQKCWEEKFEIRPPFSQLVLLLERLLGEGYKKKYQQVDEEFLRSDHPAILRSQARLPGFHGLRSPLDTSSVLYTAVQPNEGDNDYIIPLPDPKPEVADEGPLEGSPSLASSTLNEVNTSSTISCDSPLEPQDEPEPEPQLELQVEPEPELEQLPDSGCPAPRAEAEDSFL
T1 sequence (P35968 with tags, fused parts or gaps DEL940-989/E990V limits assumed): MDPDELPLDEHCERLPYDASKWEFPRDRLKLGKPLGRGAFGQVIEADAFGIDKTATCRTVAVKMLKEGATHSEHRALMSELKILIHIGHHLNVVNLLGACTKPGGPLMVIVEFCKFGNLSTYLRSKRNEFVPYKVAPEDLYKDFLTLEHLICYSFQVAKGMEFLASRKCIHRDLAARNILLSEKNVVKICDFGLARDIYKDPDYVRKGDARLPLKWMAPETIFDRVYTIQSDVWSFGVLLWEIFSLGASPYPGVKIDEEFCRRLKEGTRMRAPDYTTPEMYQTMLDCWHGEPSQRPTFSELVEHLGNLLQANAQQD

Compound	inhibition at 0.1 µM [1, 3] [%]	IC50 (PDGFRβ; [4]) [nM]	inhibition at 0.1 µM (FGF-R1) [%]	inhibition at 0.05 µM [1] [%]	Ki [1] [nM]	IC50 (PDGFRβ; [5]) [nM]	IC50 [2] [nM]	IC50 (Huvec) [nM]	further results
Cc1oc2cc(Oc3ccnc4ccsc34)ccc2c1C(=O)NCCc1cccc(C(F)(F)F)c1	97	> 100	0	–	–	–	–	–	–
Cc1oc2cc(Oc3ccnc4ccsc34)ccc2c1C(=O)NCC(c1ccc[nH]1)C(F)(F)F (stereo not drawn)	85	> 100	3	–	–	–	–	–	–
Cc1oc2cc(Oc3ccnc4ccsc34)ccc2c1C(=O)NCCOC(C)C [drawing 361]	94	61	0	–	–	–	–	–	–
Cc1cc(C)c(O)c(NC(=O)c2c(C)oc3cc(Oc4ccnc5ccsc45)ccc23)c1	–	~100	13	–	–	–	–	–	inhibition at 0.1 µM [1]: 87%
Cc1sc2cc(Oc3ccnc4cc(C(=O)N5CCC[C@H]5CO)sc34)ccc2c1C(=O)NC1CC1 [Example 8, 6-(2-[(S)-2-(hydroxymethyl)pyrrolidine-1-carbonyl]thieno[3,2-b]pyridin-7-yloxy)-2-methylbenzo[b]thiophene-3-carboxylic acid cyclopropylamide]	–	–	–	94	0.403	–	1.37	504	mouse Cmin, po (Mouse PK assay): 105 ng/mL; AUC (Mouse PK assay): 2350 ng·h/mL; Cmax (Mouse PK assay): 666 ng/mL
CNC(=O)c1c(C)sc2cc(Oc3ccnc4cc(C(=O)N5C[C@H](OC)[C@H](OC)C5)sc34)ccc12 [Example 5, 6-(2-[meso-3,4-dimethoxypyrrolidine-1-carbonyl]thieno[3,2-b]pyridin-7-yloxy)-2-methylbenzo[b]thiophene-3-carboxylic acid methylamide]	–	–	–	73	1.91	–	1.55	235	mouse Cmin, po (Mouse PK assay): 256 ng/mL; AUC (Mouse PK assay): 12300 ng·h/mL; Cmax (Mouse PK assay): 6740 ng/mL
CNC(=O)c1c(C)n(C)c2cc(Oc3ccnc4cc(-c5ccc(OC)cn5)sc34)ccc12 [Example 48, 6-[2-(5-Methoxy-pyridin-2-yl)-thieno[3,2-b]pyridin-7-yloxy]-1,2-dimethyl-1H-indole-3-carboxylic acid methylamide]	–	–	–	91	–	21	0.94	239	–
CCc1oc2cc(Oc3ccnc4cc(C(=O)N5CC[C@@H](O)C5)sc34)ccc2c1C(=O)NC [Example 95, 2-Ethyl-6-[2-(3-hydroxy-pyrrolidine-1-carbonyl)-thieno[3,2-b]pyridin-7-yloxy]-benzofuran-3-carboxylic acid methylamide]	–	–	–	89	0.848	235	10	96	–
Cc1oc2cc(Oc3ccnc4cc(C(=O)N5CC[C@@H](O)C5)sc34)ccc2c1C(=O)NCC(C)C [Example 88, 2-Methyl-6[2-(3-hydroxy-pyrrolidine-1-carbonyl)-thieno[3,2-b]pyridin-7-yloxy]-benzofuran-3-carboxylic acid isobutyl amide]	–	–	–	94	0.574	15.1	0.46	363	–
CCc1sc2cc(Oc3ccnc4cc(C(=O)N5CC[C@@H](OC)C5)sc34)ccc2c1C(=O)NC [Example 135, 2-Ethyl-6-[(2-{[(3R)-3-methoxypyrrolidin-1-yl]carbonyl}thieno[3,2-b]pyridin-7-yl)oxy]benzo[b]thiophene-3-carboxylic acid methylamide]	–	–	–	87	1.54	212	1.02	559	–
CCCNC(=O)c1c(C)n(C)c2cc(Oc3ccnc4cc(C(=O)N5CCC[C@H]5CO)sc34)ccc12 [Example 58, 6-(2-[2-(S)Hydroxymethyl-pyrrolidine-1-carbonyl]thieno[3,2-b]pyridin-7-yloxy)-1,2-dimethyl-1H-indole-3-carboxylic acid propylamide]	–	–	–	55	7.59	124	3.65	7830	–
CCCNC(=O)c1c(C)oc2cc(Oc3ccnc4cc(C(=O)N5CC[C@@H](OC)C5)sc34)ccc12 [Example 92, 6-[2-(3-Methoxy-pyrrolidine-1-carbonyl)-thieno[3,2-b]pyridin-7-yloxy]-2-methyl-benzofuran-3-carboxylic acid propyl amide]	–	–	–	100	0.2	4.4	0.18	13	–
CO[C@@H]1CCN(C(=O)c2cc3nccc(Oc4ccc5c(C(=O)NC6CC6)c(C)sc5c4)c3s2)C1 [Example 11, 6-[(2-{[(3R)-3-methoxypyrrolidin-1-yl]carbonyl}thieno[3,2-b]pyridin-7-yl)oxy]-2-methylbenzo[b]thiophene-3-carboxylic acid cyclopropylamide]	–	–	–	93	0.492	104	0.56	40	–

More lines, main results first:

inhibition at 0.1 µM [1, 3] [%]	IC50 (PDGFRβ; [4]) [nM]	inhibition at 0.1 µM (FGF-R1) [%]	inhibition at 0.05 µM [1] [%]	Ki [1] [nM]	IC50 (PDGFRβ; [5]) [nM]	Compound	IC50 [2] [nM]	IC50 (Huvec) [nM]	further results
100	> 100	56	–	–	–	Cc1oc2cc(Oc3ccnc4ccsc34)ccc2c1C(=O)Nc1cc(C(C)(C)C)[nH]n1	–	–	–
61	> 100	0	–	–	–	Cc1oc2cc(Oc3ccnc4ccsc34)ccc2c1C(=O)Nc1n[nH]c2cccc(F)c12	–	–	–
96	~100	0	–	–	–	Cc1oc2cc(Oc3ccnc4ccsc34)ccc2c1C(=O)Nc1ccc2[nH]ncc2c1	–	–	–
103	53	2	–	–	–	Cc1oc2cc(Oc3ccnc4ccsc34)ccc2c1C(=O)NCCCN1CCOCC1 [drawing 308]	–	–	–
85	~100	0	–	–	–	Cc1ccc(NC(=O)c2c(C)oc3cc(Oc4ccnc5ccsc45)ccc23)c(O)c1	–	–	–
85	> 100	7	–	–	–	Cc1oc2cc(Oc3ccnc4ccsc34)ccc2c1C(=O)Nc1cnc2ccccc2c1	–	–	–
94	> 100	0	–	–	–	Cc1oc2cc(Oc3ccnc4ccsc34)ccc2c1C(=O)Nc1cccc(-c2cc[nH]n2)c1	–	–	–
100	46	4	–	–	–	Cc1cc(NC(=O)c2c(C)oc3cc(Oc4ccnc5ccsc45)ccc23)n[nH]1 [drawing 331]	–	–	–
101	57	0	–	–	–	Cc1oc2cc(Oc3ccnc4ccsc34)ccc2c1C(=O)Nc1ccc(N2CCOCC2)nc1 [drawing 369]	–	–	–
90	> 100	20	–	–	–	Cc1oc2cc(Oc3ccnc4ccsc34)ccc2c1C(=O)Nc1nccs1	–	–	–
